{"source": "patent US6191115A", "about": "“C-terminus modified heptapeptide LHRH analogs” (Abbott Laboratories, priority 1999, dated 2001)", "biological_target": "T1, LH release from rat pituitary cells (Rattus norvegicus, UniProt P30969)", "T1 sequence (P30969 1-327)": "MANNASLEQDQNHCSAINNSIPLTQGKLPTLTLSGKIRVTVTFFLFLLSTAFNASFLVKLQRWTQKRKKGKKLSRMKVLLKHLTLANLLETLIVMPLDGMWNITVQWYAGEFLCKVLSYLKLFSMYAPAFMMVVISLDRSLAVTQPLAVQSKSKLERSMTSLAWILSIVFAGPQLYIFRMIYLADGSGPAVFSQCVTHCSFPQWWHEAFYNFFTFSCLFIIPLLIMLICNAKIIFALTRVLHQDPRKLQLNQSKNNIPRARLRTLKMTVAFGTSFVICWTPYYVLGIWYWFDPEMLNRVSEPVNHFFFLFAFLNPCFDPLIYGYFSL", "test": "in vitro inhibition of LH release from rat pituitary cells (pA2)", "format": "cell-based", "details": "pA2 = negative logarithm of antagonist concentration required to shift the response curve of the agonist leuprolide to two-fold higher concentration", "procedure": "Representative compounds of the present invention were evaluated in vitro for inhibition of LH release from rat pituitary cells (pA2). Methods for the assay procedures arc described by F. Haviv, et al. J. Med. Chem., 32:2340-2344 (1989). Values of pA2 are the negative logarithms of the concentration of the particular antagonist test compound required to shift the response curve produced by the agonist leuprolide to two-fold higher concentration. Typically values of 7.0 or greater are indicative of good LHRH antagonist potency, with values of 8.0 or greater being preferred. Leuprolide LHRH agonist, disclosed and claimed in U.S. Pat. No. 4,005,063, has the structure 5-oxo-Pro^1 -His^2 -Trp^3 -Ser^4 -Tyr^5 -D-Leu^6 -Leu^7 -Arg^8 -Pro^9 -NHEt.", "note": "Non-standard residues stand in square brackets, D forms with d. Residues, ends and D or L forms follow the SMILES beside them. *: point of attachment. dPhe(4-Cl) = N[C@H](Cc1ccc(Cl)cc1)C(=O)O; d2Nal = N[C@H](Cc1ccc2ccccc2c1)C(=O)O; NMeY = CN[C@@H](Cc1ccc(O)cc1)C(=O)O; d3Pal = N[C@H](Cc1cccnc1)C(=O)O; Nicotinoyl = O=C(c1cccnc1)*; NH(CH2)4OH = OCCCCN*; X3 = O=C1CCCN1CCCN*", "data": [{"smiles": "CC(=O)N[C@H](Cc1ccc2ccccc2c1)C(=O)N[C@H](Cc1ccc(Cl)cc1)C(=O)N[C@H](Cc1cccnc1)C(=O)N[C@@H](CO)C(=O)N(C)[C@@H](Cc1ccc(O)cc1)C(=O)N[C@H](CCCCNC(=O)c1cccnc1)C(=O)N[C@@H](CC(C)C)C(=O)NCCCN1CCCC1=O", "note": "[Example 33, NAcD2Nal-D4ClPhe-D3Pal-Ser-NMeTyr-DLys(Nic)-Leu-NH--CH2 CH2 CH2 -(1-pyrrolidin-2-one)] (Ac-[d2Nal][dPhe(4-Cl)][d3Pal]S[NMeY][dK](Nicotinoyl)L-X3)", "values": [{"measurement": "LHRH antagonist potency (pA2)", "result": 8.30}]}, {"smiles": "CC(=O)N[C@H](Cc1ccc2ccccc2c1)C(=O)N[C@H](Cc1ccc(Cl)cc1)C(=O)N[C@H](Cc1cccnc1)C(=O)N[C@@H](CO)C(=O)N(C)[C@@H](Cc1ccc(O)cc1)C(=O)N[C@H](CCCCNC(=O)c1cccnc1)C(=O)N[C@@H](CC(C)C)C(=O)NCCCCO", "note": "[Example 34, NAcD2Nal-D4ClPhe-D3Pal-Ser-NMeTyr-DLys(Nic)-Leu-NH--CH2 CH2 CH2 CH2 OH] (Ac-[d2Nal][dPhe(4-Cl)][d3Pal]S[NMeY][dK](Nicotinoyl)L-{NH(CH2)4OH})", "values": [{"measurement": "LHRH antagonist potency (pA2)", "result": 8.71}]}]}
